System: RAW264.7
Assay: Anti-inflammatory activity in Mus musculus (mouse) RAW264.7 cells assessed as inhibition of PMA-induced macrophages respiratory burst measured up to 30 min by chemiluminescence method
Assay type: functional, cell-based
Settings: RAW264.7, 0.5 h

Point of comparison: `C[C@@H]1O[C@@H](OC[C@H]2O[C@@H](Oc3c(-c4ccc(O)c(O)c4)oc4cc(O)cc(O)c4c3=O)[C@H](O)[C@@H](O)[C@@H]2O)[C@H](O)[C@H](O)[C@H]1O` [RUTIN], IC50 15.1 µM. Against it:
- COC(=O)C1=CO[C@@H](O[C@@H]2O[C@H](CO[C@@H]3O[C@H](COC(=O)/C=C/c4ccc(O)cc4)[C@@H](O)[C@H](O)[C@H]3O)[C@@H](O)[C@H](O)[C@H]2O)[C@@H]2C(CO)=CC[C@H]12 [6'-O-P-COUMAROYLGENIPIN GENTIOBIOSIDE] — 5.2-fold higher, 78.7 µM
- COc1cc(/C=C/C(=O)O[C@H]2[C@H](O[C@@H]3O[C@H](CO)[C@@H](O)[C@H](O)[C@H]3O)[C@@H](O[C@@H]3OC[C@H](O)[C@H](O)[C@H]3O)[C@H](OCCc3ccc(O)c(O)c3)O[C@@H]2CO)ccc1O [CHIONOSIDE A] — 22-fold higher, 336 µM
- C[C@@H]1C[C@H]2[C@@H]3CCC4=CC(=O)C=C[C@]4(C)[C@@]3(F)[C@@H](O)C[C@]2(C)[C@@]1(O)C(=O)CO [DEXAMETHASONE] — 24-fold higher, 355 µM
- COc1cc(/C=C/C(=O)O[C@H]2[C@H](O[C@@H]3O[C@H](CO)[C@@H](O)[C@H](O)[C@H]3O)[C@@H](O[C@@H]3OC[C@H](O)[C@H](O)[C@H]3O)[C@H](OCCc3ccc(O)c(O)c3)O[C@@H]2CO[C@@H]2OC[C@H](O)[C@@H](O)[C@@H]2O)ccc1O [HELIOSIDE C] — 21-fold higher, 320 µM
- O=C(/C=C/c1ccc(O)cc1)OC[C@H]1O[C@@H](OCCc2ccc(O)c(O)c2)[C@H](O[C@@H]2OC[C@H](O)[C@H](O)[C@H]2O)[C@@H](O[C@@H]2O[C@H](CO)[C@@H](O)[C@H](O)[C@H]2O)[C@@H]1O [ISOARAGOSIDE] — 20-fold higher, 308 µM
- COC(=O)C1=CO[C@@H](O[C@@H]2O[C@H](CO)[C@@H](O)[C@H](O)[C@H]2O)[C@@H]2C(CO)=C[C@@H](OC[C@H]3O[C@@H](O[C@@H]4OC=C(C(=O)OC)[C@H]5C=C[C@](O)(CO)[C@@H]45)[C@H](O)[C@@H](O)[C@@H]3O)[C@H]12 [ROTUNDUSIDE A] — 14-fold higher, 217 µM
- COC(=O)C1=CO[C@@H](O[C@@H]2O[C@H](CO[C@@H]3O[C@H](COC(=O)/C=C/c4cc(O)c(O)c(O)c4)[C@@H](O)[C@H](O)[C@H]3O)[C@@H](O)[C@H](O)[C@H]2O)[C@@H]2C(CO)=CC[C@H]12 [ROTUNDUSIDE B] — 2.1-fold higher, 31.1 µM

Reference: ChEMBL document CHEMBL3045908, “Phenolic and iridoid glycosides from the rhizomes of Cyperus rotundus L” (Med Chem Res, 2013)
